Data on two compounds can be found in patent US20110184018A1, “METHOD FOR TREATING PERIPHERAL NEUROPATHIC PAIN” (LOHOCLA RESEARCH CORPORATION, priority 2005, published 2011).

Data set [1] in a line: Plasma and brain levels after oral administration of DCUK-OEt. Format: in vivo. The following applies: rat, 200 mg/kg DCUK-OEt emulsion by oral gavage. Here is the method:
Oral administration has been the major route of drug administration for the treatment of many diseases. […] Groups of rats were administered 200 mg/kg DCUK-OEt prepared as an emulsion in gelatin:canola oil (50:50) by oral gavage and sacrificed at 0.25, 0.5, 1, 1.5, 2, 4, 6, and 8 hours following administration, in order to collect the blood and brains for analysis. Plasma and brain levels of DCUKA and DCUK-OEt were analyzed by liquid chromatographic separation and mass spectrometric detection. Orally administered DCUK-OEt was converted to DCUKA by plasma and brain carboxylesterases. Peak levels of plasma DCUK-OEt were reached by about 1 hour post-administration, and fell to low levels by about 2 hours. DCUKA plasma levels peaked at about 2 hours and then fell off slowly over the next 4 hours. Brain DCUK-OEt levels peak at about 1 hour post-administration.
Oral administration. Following overnight food deprivation, groups of 3 rats were administered 200 mg/kg DCUK-OEt by oral gavage (40 mg/mL DCUK-OEt at 5 mL/kg body weight). Groups of rats were anesthetized and sacrificed by decapitation at 0.25, 0.5, 1, 1.5, 2, 4, 6, and 8 hours post-administration. Trunk blood was collected into tubes containing K2EDTA anticoagulant and brains were removed, washed thoroughly with 0.9% NaCl, and frozen on dry ice. Blood samples were centrifuged at 4000 rpm for 10 minutes. Plasma supernatant was removed and frozen at −80° C. until the time of the assay.
Liquid chromatographic-mass spectrometric determination of plasma and brain DCUKA and DCUK-OEt levels. Rat plasma sample preparation involved a simple protein precipitation procedure (100 μL plasma+250 μL acetonitrile containing 25 ng/mL of the internal standard, DCUK-OMe). After vortexing (5 minutes) and centrifugation (5000 g, 5 minutes, +4° C.), 200 μL of the supernatant was injected into the HPLC system and loaded onto the extraction column. Frozen brain tissue samples (about 0.5 g) were homogenized over liquid nitrogen using a mortar and pestle. The homogenized powder was transferred into the tubes containing 1.5 mL ice-cold 100% acetonitrile and 25 ng/mL DCUK-OMe (used as an internal standard). Following procedures were all performed on ice or at 4° C. The samples were further homogenized using an electric homogenizer for 30 seconds at 4° C. Subsequently, the tubes were placed into the ultrasonic bath for 30 minutes (on ice), and centrifuged afterwards at 1300 g for 10 minutes at 4° C. The supernatant was transferred into the HPLC tube. The pellet was re-extracted with 500 μL MeOH (containing 25 ng/mL DCUK-OMe), sonicated for 10 minutes, and centrifuged (10 minutes at 1300 g, 4° C.). The MeOH phase was combined with the acetonitrile solution from the first extraction step and 500 μL of the solution was directly injected into the HPLC system.
The two HPLC systems consisted of the following components (all series 1100, Agilent Technologies, Palo Alto, USA): HPLC I: G1312A binary pump, G1379A degasser; HPLC II: G1312A binary pump, and a G1316A column thermostat. A Sciex API 4000 triple-stage quadrupole mass spectrometer was used as detector (Applied Biosystems, Foster City, USA). The HPLC systems were connected via a 6-port column switching valve mounted on a step motor. The HPLC's switching valve and the mass spectrometer were controlled by the Analyst software (version 1.3.1., Applied Biosystems). […]

The target in data set [2] is T1, cannabinoid receptor 1 (CB1) (Homo sapiens, UniProt P21554).
T1 construct: expressed in transfected cells; host or cells: HEK293 cells
The experiment in a line: Displacement of [3H]CP55940 from CB1 receptors expressed in HEK293 cells. Format: binding. Particulars: [3H]CP55940 displacement, Cheng-Prusoff. An excerpt:
The cannabinoid receptor 1 (CB1) is a G-protein coupled receptor (GPCR), which can modulate the enzymatic activity of adenylyl cyclase (AC), inhibit calcium influx into neurons and increase neuronal potassium permeability. The CB1 receptors have been reported to be intimately involved in the progression and control of chronic pain. The CB1 receptors reportedly are involved in both the amelioration of anxiety and depression and may also be important in cognitive function and eating behavior. The interaction of a chemical entity with a CB1 receptor can be measured by the binding of selective radioligands to the native receptor or a CB1 receptor expressed in model cell systems. To ascertain the extent to which a non-radioactive ligand binds to a CB1 receptor the displacement of the radioactive CB1 selective ligand with DCUK-OEt was performed. The methods of assay and calculations for binding constants can be accessed, for example, on the PDSP website (pdsp(dot)med(dot)unc(dot)edu/indexR(dot)html). For binding of DCUK-OEt to the CB1 receptor, the displacement of the CB1 selective radioligand [^3H] CP55940 from CB1 receptors expressed in HEK293 cells was monitored. The log IC50 was determined from the displacement data, and the Ki values for DCUKA and DCUK-OEt were calculated using the Cheng-Prusoff equation.
Background: Displacement assays read how much labelled ligand stays bound in the presence of the test substance.

Data set [3] has as its target voltage sensitive sodium channel (neurotoxin receptor Site 2). The experiment in a line: [3H]BTX binding assay. The following applies: rat cortical synaptosomes.

Read-outs that look alike come from different tables or passages of the source.

For orientation: Ki means the dissociation constant of the complex between target and ligand, obtained from inhibition or displacement. Read a low Ki as tighter binding. The IC50 is the concentration that inhibits the measured activity by half.

T1 sequence (P21554 whole entry, species assumed): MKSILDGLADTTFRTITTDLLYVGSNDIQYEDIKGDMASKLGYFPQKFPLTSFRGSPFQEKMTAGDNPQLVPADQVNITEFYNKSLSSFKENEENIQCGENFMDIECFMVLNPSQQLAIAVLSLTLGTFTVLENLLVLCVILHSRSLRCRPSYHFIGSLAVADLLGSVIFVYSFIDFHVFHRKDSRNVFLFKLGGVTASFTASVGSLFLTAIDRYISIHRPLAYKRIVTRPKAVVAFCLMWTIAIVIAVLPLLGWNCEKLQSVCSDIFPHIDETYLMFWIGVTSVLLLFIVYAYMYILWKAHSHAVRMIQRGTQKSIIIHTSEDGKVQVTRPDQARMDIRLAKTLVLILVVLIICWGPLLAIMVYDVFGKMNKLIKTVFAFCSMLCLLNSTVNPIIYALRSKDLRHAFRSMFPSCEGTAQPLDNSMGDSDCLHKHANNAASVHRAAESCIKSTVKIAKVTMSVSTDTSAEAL

For `CCOC(=O)c1cc(NC(=O)N(c2ccccc2)c2ccccc2)c2c(Cl)cc(Cl)cc2n1` [DCUK-OEt, N,N-diphenyl-4-ureido-5,7-dichloro-2-carboxy quinoline ethyl ester], the “time at which plasma level fell to low levels” value in data set [1] is “about 2 hours”. For the same compound, in data set [1] (analyte = label), the “time of peak brain level” value is “about 1 hour” and the “time of peak plasma level” value is “about 1 hour”. For the same compound, the Ki in data set [2] amounted to 7.4 µM.

On to `O=C(O)c1cc(NC(=O)N(c2ccccc2)c2ccccc2)c2c(Cl)cc(Cl)cc2n1` [DCUKA, N,N-diphenyl-4-ureido-5,7-dichloro-2-carboxyquinoline], for which the IC50 in data set [3] (depolarizing conditions (135 mM KCl), read-out: IC50 [3H]BTX binding under depolarizing conditions (value in parentheses)) came to 30 µM; in data set [3] (none = no displacement at 100 μM, read-out: IC50 [3H]BTX binding), 76 µM. Also, the “time of peak plasma level” value in data set [1] (analyte = label) is given as “about 2 hour”. The “brain level at about 8 hours post-administration” value in data set [1] (analyte DCUKA) is reported as “still elevated”. This compound also yielded a Ki in data set [2] greater than 10 µM.
